Source: US20250230138A1, “COMPOUNDS HAVING A T-STRUCTURE FORMED BY AT LEAST FOUR CYCLES FOR USE IN THE TREATMENT OF CANCER AND OTHER INDICATIONS” (TheRas, Inc., priority 2022, published 2025)
Like-named read-outs stand apart in the source and are kept apart here.

What was measured:
pAKT in BT474 cells = assay: Cell-based pAKT HTRF assay in BT474 cells; conditions: BT474 cells, 4 hr incubation, read-out: pAKT inhibition IC50 in BT474 cells
Method: On Day 1, cells were seeded into 96-well plates at 2.5×10^4 cells/well in complete growth media (DMEM, 10% FBS). On Day 2, cells were treated with compounds at 0.25% DMSO. The source plate was created with compounds diluted in media at 5-fold the final assay concentration. The compounds are run in a 9-point concentration curve starting at 3 μM, with a 3-fold dilution between concentrations. 20 μL was transferred onto the cell plates (final volume in wells was 100 μL). Plates were harvested after 4 hr incubation by aspirating media and adding kit-supplied 1× supplemented lysis buffer to all wells (75 μL per well). Plates were then placed on a plate shaker and incubated at 850 rpm for an additional 30 min. The antibody mixture solution was prepared by diluting aliquoted d2 and Eu Cryptate antibodies 1:20 in kit supplied detection buffer, then mixed the diluted antibodies solutions (1:1 v:v). 4 μL of this solution was then added to a 384-well detection plate (Perkin Elmer; 6008230). Samples were homogenized by pipetting up and down and then transferred (16 μL of cell lysates) from the 96-well cell culture plate to two wells of the HTRF 384-well detection plate containing the antibody solution. Plates were centrifuged (524 g for 1 min) and allowed to incubate between 4 and 24 h at room temperature. The maximum signal is reached after 4 h incubation time and remains stable over a period of 24 hours. Therefore, readings can be made between 4 and 24 h of incubation. Plates were centrifuged again (524 g for 1 m), and analyzed on the EnVision plate reader using the following settings: Excitation 320 nm, Bandwidth […]; Emission 615 nm, Bandwidth […], Gain 10000, Flashes 100, Lag 60 μs.

[1] = target: Cys242 in human PIK3CA (157-299) (Homo sapiens (Human), UniProt P42336); assay: Covalent modification assay using MALDI-TOF MS; assay type: biochemical; conditions: 4 h reaction time point
Method: Matrix-Assisted Laser Desorption Ionization-Time of Flight Mass Spectrometry (MALDI-TOF MS) analysis of covalent modification of Cys242 in human PIK3CA (157-299) was performed.
Reaction: 3.33 μM or 1 μM of PIK3CA (157-299) protein (produced in-house by Protein Expression Laboratory, FNLCR/Leidos Biomed) in 20 mM HEPES buffer containing 150 mM NaCl, 2 mM MgCl2, pH 7.3 was prepared freshly before assay. Twelve-μL aliquots of protein were dispensed onto low volume 384-well plate, then 470 nL DMSO and 30 nL of tested compounds from 10 mM DMSO stocks were added to appropriate wells using ECHO 555 acoustic liquid handler (Labcyte Inc.). For each reaction/assay, three blanks were prepared by mixing 12 μL of protein solution with 500 nL DMSO. The wells content was carefully mixed by aspiration, and then the plate was sealed by an adhesive cover, centrifuged at 931 g for 1 minute, and kept in the dark at room temperature until 15 min, 30 min, 2 h, or 4 h collections.
Targetpretreatment: Before each assay MALDI target (Bruker MPT 384 ground steel BC) was pre-treated by pipetting on each spot 0.75 μL of saturated sinapinic acid in acetonitrile (ACN).
Sample preparation: At collection time point, 2 μL of reaction mixtures were pipetted out into […] MALDI matrix solution (saturated solution of sinapinic acid in 1:1 ACN:water solution containing 0.15% trifluoroacetic acid (TFA)) deposited on 384 well polypropylene plate. The resulting solution was mixed by aspiration, centrifuged at 931 g for 1 minute, then 1.5 μL aliquots were dispensed on pre-treated MALDI target using Beckman Coulter Biomek FX^P 96/384-Span-8 Laboratory Automation Workstation. Finally, the MALDI target was dried under a mild vacuum to produce spots with a fine crystalline structure.
Measurements: MALDI-TOF measurements were performed on Bruker Daltonics rapifleX Tissuetyper TOF-TOF mass spectrometer using linear mode and mass ranging from 16.0 to 19.6 kDa. Detector gain was set to 0.64×(459 V), sample rate to 5 GS/s, real-time smoothing to medium (175 MHz), laser smart beam pattern was set to “Custom” single smartbeam beam scan with a scan range of 40 μm on both X and Y axis, and the laser frequency was 10000 Hz. Spectra were automatically collected using the custom AutoXecute method. Laser power was auto adjusted using fuzzy control. The peak selection range was set to be between 16.0 and 18.5 kDa. Peak evaluation uses a half-width parameter set to be smaller than 40 Da for processed spectrograms (centroid peak detection; smoothed by SavitzkyGolay algorithm using 7 m/z width and 2 cycles; baseline was subtracted using a median algorithm with flatness 1 and median level 0). Fuzzy control used Proteins/Oligonucleotides protocol with minimum half-width 1/10 times above threshold. Up to 40000 satisfactory shots were collected in 10000 short steps. Dynamic termination was implemented to finish data collection when the peak signal/noise ratio was reaching a value of 1000.
Spectra processing: Spectra were smoothed by SavitzkyGolay algorithm using 7 m/z width and three cycles. Centroid peak detection algorithm was used with signal to noise threshold set to 6, relative intensity threshold 3%, peak width 10 m/z, and median baseline subtraction using flatness of 1 and the median level of 0.1. Peak intensity and area under the peak were evaluated and recorded for all peaks between 16.0 and 19.5 kDa.
Calculation of percent modification: Percent modification was calculated as a ratio of peak height for protein modified by compound to the sum of the peak height of remaining protein plus peak height for protein modified by a compound. If multiple modifications were observed each was calculated as a ratio of peak height for given modification versus the sum of peak heights for all observed protein species.

[2] = 3.33 μM protein target, 1:7.5 protein to compound ratio (compounds 1-852)
[3] = 1 μM protein target, 1:5 protein to compound ratio (compounds 853-1279)

Chain of Cys242 in human PIK3CA (157-299) (P42336 157-299): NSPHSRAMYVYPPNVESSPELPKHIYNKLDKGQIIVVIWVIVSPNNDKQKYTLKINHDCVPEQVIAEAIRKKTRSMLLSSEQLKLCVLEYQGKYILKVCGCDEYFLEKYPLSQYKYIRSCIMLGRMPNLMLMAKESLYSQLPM

Compound	IC50 (pAKT in BT474 cells; Compounds 10-999)	% of modification [1, 2]	% of modification [1, 3]	IC50 (pAKT in BT474 cells; Compounds 1000-1279)
C=CC(=O)N1CC(n2cc(-c3nc(N4CCC5(CC4)COC5)c4ccsc4c3-c3ccc(F)cc3OCCOC)cn2)C1 [Compound 122]	0.1 to 1 µM	A (percent of modification of PIK3CA protein ≥75%)		
C=CC(=O)N1CC[C@H](n2ccc(-c3nc(-c4cnn(C)c4)c4ccsc4c3-c3ccc(F)cc3OC(C)C)n2)C1 [Compound 318]	< 0.1 µM	A (percent of modification of PIK3CA protein ≥75%)		
C=CC(=O)N1CCn2nc(-c3nc(-c4ccc(=O)n(CC(F)F)c4)c4ccsc4c3-c3c(F)cc(F)cc3OCCOC)cc2C1C (centres unmarked) [Compound 988]	< 0.1 µM		A (percent of modification of PIK3CA protein ≥75%)	
C=CC(=O)N1CCn2nc(-c3nc(-c4ccc(N5CCN(C)CC5)nc4)c4ccsc4c3-c3c(F)cc(F)cc3OCCOC)cc2C1C (centres unmarked) [Compound 1048]			A (percent of modification of PIK3CA protein ≥75%)	< 0.1 µM
C=CC(=O)N1CCc2ncc(-c3nc(-c4ccc5c(c4)CNC(=O)C54CC4)c4ccsc4c3-c3c(F)cc(F)cc3OCCOC)cc2C1 [Compound 1192]			A (percent of modification of PIK3CA protein ≥75%)	< 0.1 µM
C=CC(=O)N1Cc2cc(-c3nc(-c4cnn(C)c4)c4ccsc4c3-c3c(F)cc(F)cc3OCCOC)nn2C[C@H]1C [Compound 578]	1 to 3 µM	D (percent of modification <25%)		
C=CC(=O)N1CCn2nc(-c3nc(-c4ccc(N(C)C)nc4)c4ccsc4c3-c3c(F)cc(F)cc3OCCOC)cc2C1C (centres unmarked) [Compound 982]	< 0.1 µM		A (percent of modification of PIK3CA protein ≥75%)	
COc1cc(F)ccc1-c1c(-c2cnn(C3CN(C(=O)C(F)Cl)C3)c2)nc(-c2ccc3c(c2)CCNC3)c2ccsc12 (centres unmarked) [Compound 171]	> 3 µM	D (percent of modification <25%)		
C=CC(=O)N1CCn2nc(-c3nc(N4CCC5(CN(C)C5)C4)c4ccsc4c3-c3c(F)cc(F)cc3OCCOC)cc2C1C (centres unmarked) [Compound 1055]			C (25%≤percent of modification <50%)	0.1 to 1 µM
C=CC(=O)N1CCc2nc(-c3nc(-c4cnc5c(c4)CCN(C)C5)c4ccsc4c3-c3c(F)cc(F)cc3OCCOC)sc2C1 [Compound 521]	< 0.1 µM	A (percent of modification of PIK3CA protein ≥75%)		
C=CC(=O)N1CCn2nc(-c3nc(-c4ccc5oc(C)nc5c4)c4ccsc4c3-c3c(F)cc(F)cc3OC[C@@H](C)O)cc2[C@@H]1C [Compound 655]	< 0.1 µM	A (percent of modification of PIK3CA protein ≥75%)		
C=CC(=O)N1CCc2ccc(-c3nc(-c4cnc5c(c4)CNC(=O)C5)c4ccsc4c3-c3c(F)cc(F)cc3OCCOC)cc2C1 [Compound 482]	< 0.1 µM	A (percent of modification of PIK3CA protein ≥75%)		
C=CC(=O)N1CCc2ncc(-c3nc(-c4ccn(C)n4)c4ccsc4c3-c3c(F)cc(F)cc3OC(C)C)cc2C1 [Compound 404]	< 0.1 µM	A (percent of modification of PIK3CA protein ≥75%)		
